According to PubChem BioAssay AID248 (DTP/NCI, 2004):
“And” between values parts separate entries of the source, which are not always exact repeats. Equal entries are not always repeated. Toxic doses and inconclusive results are not listed. Rule as the data show it: active = T/C of 150% or more; inactive = T/C below 125%.

Test system: L1210 leukemia ip in BDF1 mice, survival T/C
Assay: NCI In Vivo Anticancer Drug Screen. Data for tumor model L1210 Leukemia (intraperitoneal) in B6D2F1 (BDF1) mice
Conditions: endpoint: mean survival time, higher = longer survival
Summary of the method: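 Read-out is survival time, reported as the treated-group measurement over the vehicle-control measurement.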

[1] = dose: 25.0 mg/kg/injection, schedule: Q01DX009 (ip), vehicle: Klucel (hydroxypropylcellulose) (HPC)
[2] = dose: 25.0 mg/kg/injection, schedule: Q04DX003 (ip), vehicle: Klucel (hydroxypropylcellulose) (HPC)
[3] = dose: 50.0 mg/kg/injection, schedule: Q01DX009 (ip), vehicle: Klucel (hydroxypropylcellulose) (HPC)
[4] = dose: 50.0 mg/kg/injection, schedule: Q04DX003 (ip), vehicle: Klucel (hydroxypropylcellulose) (HPC)
[5] = dose: 100.0 mg/kg/injection, schedule: Q04DX003 (ip), vehicle: Klucel (hydroxypropylcellulose) (HPC)
[6] = dose: 100.0 mg/kg/injection, schedule: Q04DX003 (ip), vehicle: saline with Tween-80
[7] = dose: 200.0 mg/kg/injection, schedule: Q04DX003 (ip), vehicle: saline with Tween-80
[8] = dose: 400.0 mg/kg/injection, schedule: Q04DX003 (ip), vehicle: saline with Tween-80
[9] = dose: 12.5 mg/kg/injection, schedule: Q04DX003 (ip), vehicle: Klucel (hydroxypropylcellulose) (HPC)
[10] = dose: 200.0 mg/kg/injection, schedule: Q04DX003 (ip), vehicle: Klucel (hydroxypropylcellulose) (HPC)
[11] = dose: 100.0 mg/kg/injection, schedule: Q01DX001 (ip), vehicle: Klucel (hydroxypropylcellulose) (HPC)
[12] = dose: 200.0 mg/kg/injection, schedule: Q01DX001 (ip), vehicle: Klucel (hydroxypropylcellulose) (HPC)
[13] = dose: 200.0 mg/kg/injection, schedule: Q01DX009 (ip), vehicle: Klucel (hydroxypropylcellulose) (HPC)
[14] = dose: 400.0 mg/kg/injection, schedule: Q01DX001 (ip), vehicle: Klucel (hydroxypropylcellulose) (HPC)
[15] = dose: 400.0 mg/kg/injection, schedule: Q01DX009 (ip), vehicle: Klucel (hydroxypropylcellulose) (HPC)
[16] = dose: 400.0 mg/kg/injection, schedule: Q04DX003 (ip), vehicle: Klucel (hydroxypropylcellulose) (HPC)
[17] = dose: 100.0 mg/kg/injection, schedule: Q01DX009 (ip), vehicle: saline with Tween-80
[18] = dose: 200.0 mg/kg/injection, schedule: Q01DX009 (ip), vehicle: saline with Tween-80
[19] = dose: 100.0 mg/kg/injection, schedule: Q01DX009 (ip), vehicle: saline
[20] = dose: 100.0 mg/kg/injection, schedule: Q04DX003 (ip), vehicle: saline
[21] = dose: 200.0 mg/kg/injection, schedule: Q01DX009 (ip), vehicle: saline
[22] = dose: 200.0 mg/kg/injection, schedule: Q04DX003 (ip), vehicle: saline
[23] = dose: 400.0 mg/kg/injection, schedule: Q04DX003 (ip), vehicle: saline
[24] = dose: 100.0 mg/kg/injection, schedule: Q04DX002 (ip), vehicle: saline
[25] = dose: 200.0 mg/kg/injection, schedule: Q04DX002 (ip), vehicle: saline
[26] = dose: 100.0 mg/kg/injection, schedule: Q01DX009 (ip), vehicle: Klucel (hydroxypropylcellulose) (HPC)
[27] = dose: 100.0 mg/kg/injection, schedule: Q04DX002 (ip), vehicle: Klucel (hydroxypropylcellulose) (HPC)
[28] = dose: 200.0 mg/kg/injection, schedule: Q04DX002 (ip), vehicle: Klucel (hydroxypropylcellulose) (HPC)
[29] = dose: 400.0 mg/kg/injection, schedule: Q04DX002 (ip), vehicle: Klucel (hydroxypropylcellulose) (HPC)
[30] = dose: 100.0 mg/kg/injection, schedule: Q01DX001 (ip), vehicle: saline
[31] = dose: 200.0 mg/kg/injection, schedule: Q01DX001 (ip), vehicle: saline
[32] = dose: 400.0 mg/kg/injection, schedule: Q01DX001 (ip), vehicle: saline
[33] = dose: 50.0 mg/kg/injection, schedule: Q01DX001 (ip), vehicle: saline

Measured: T/C

NC1CCC(CC2CCCCC2)CC1 (configuration not stated)
inactive: [1] 96 % of control | [2] 95 % of control | [3] 98 % of control | [4] 100 % of control | [5] 91 % of control

CON(C)CCOC(=O)c1ccc(N)cc1
inactive: dose: 50.0 mg/kg/injection, schedule: Q04DX002 (ip), vehicle: saline with Tween-80 104 % of control | dose: 100.0 mg/kg/injection, schedule: Q04DX002 (ip), vehicle: saline with Tween-80 107 % of control | [6] 89 % of control | dose: 200.0 mg/kg/injection, schedule: Q04DX002 (ip), vehicle: saline with Tween-80 104 % of control | [7] 95 % of control | dose: 400.0 mg/kg/injection, schedule: Q04DX002 (ip), vehicle: saline with Tween-80 104 % of control | [8] 99 % of control

CCOC(=O)c1cc([N+](=O)[O-])cc2c1-c1c(cc([N+](=O)[O-])cc1[N+](=O)[O-])C2=O
inactive: [9] 98 % of control | [2] 101 % of control | [4] 103 % of control | [5] 96 % of control

CN(NC(=O)c1ccccc1)C(=O)c1ccccc1
inactive: [9] 106 % of control | [2] 104 % of control | [4] 103 % of control | [5] 108 % of control | dose: 130.0 mg/kg/injection, schedule: Q04DX003 (ip), vehicle: Klucel (hydroxypropylcellulose) (HPC) 100 % of control | [10] 103 % of control | dose: 300.0 mg/kg/injection, schedule: Q04DX003 (ip), vehicle: Klucel (hydroxypropylcellulose) (HPC) 113 % of control

COc1cc(C)ccc1C(=O)CCCC(=O)O
inactive: [11] 106 % of control | [5] 105 % of control | [12] 98 % of control | [13] 97 % of control | [10] 102 % of control | [14] 98 % of control | [15] 98 % of control | [16] 103 % of control

CC(C)NC(=O)CS(=O)(=O)c1ccc(N)cc1
inactive: [6] 97 % of control | [7] 97 % of control | [8] 95 % of control

COc1ccc(C(=O)O)c(O)c1O
inactive: [17] 102 % of control | [18] 104 % of control | dose: 400.0 mg/kg/injection, schedule: Q01DX009 (ip), vehicle: saline with Tween-80 101 % of control

O=NN(CCCl)C(=O)Nc1ncc([N+](=O)[O-])s1
inactive: dose: 8.0 mg/kg/injection, schedule: Q01DX001 (ip), vehicle: other 105 % of control | dose: 16.0 mg/kg/injection, schedule: Q01DX001 (ip), vehicle: other 105 % of control | dose: 31.0 mg/kg/injection, schedule: Q01DX001 (ip), vehicle: other 110 % of control | dose: 62.0 mg/kg/injection, schedule: Q01DX001 (ip), vehicle: other 109 % of control | dose: 125.0 mg/kg/injection, schedule: Q01DX001 (ip), vehicle: other 116 % of control

Cc1ccc(-n2nnc3ccccc3c2=O)cc1C
inactive: [19] 101 % of control | [20] 92 % of control | [21] 98 % of control | [22] 108 % of control | dose: 400.0 mg/kg/injection, schedule: Q01DX009 (ip), vehicle: saline 104 % of control | [23] 93 % of control

O=C(COc1cc(Cl)c(Cl)cc1Cl)Nc1cccc(C(F)(F)F)c1
inactive: [24] 100 % of control | [25] 92 % of control | dose: 400.0 mg/kg/injection, schedule: Q04DX002 (ip), vehicle: saline 111 % of control

O=C1/C(=C/c2ccccc2)Cc2cccc(O)c21
inactive: dose: 100.0 mg/kg/injection, schedule: Q01DX009 (ip), vehicle: saline sonified 100 % of control | dose: 200.0 mg/kg/injection, schedule: Q01DX009 (ip), vehicle: saline sonified 107 % of control | dose: 400.0 mg/kg/injection, schedule: Q01DX009 (ip), vehicle: saline sonified 102 % of control

C(CCSC1=NCCN1)CSC1=NCCN1
inactive: [24] 105 % of control

N/N=C1/CCc2ccccc21
inactive: [11] 90 % of control | [12] 112 % of control

CCN(CC)CCNC(=O)c1ccc(N=Cc2cc(Br)ccc2O)cc1
inactive: [26] 98 % of control | [13] 96 % of control

N#CCCNC(Cc1ccc(O)cc1)C(=O)O (configuration not stated)
inactive: [9] 104 % of control | [1] 104 % of control | [2] 98 % of control | [3] 95 % of control | [4] 104 % of control | [26] 106 % of control | [5] 100 % of control

Nc1n[nH]c2cccc(Cl)c12
inactive: dose: 50.0 mg/kg/injection, schedule: Q01DX009 (ip), vehicle: saline 96 % of control | [19] 104 % of control | [21] 96 % of control

COc1ccc(-c2sc(N)c(C#N)c2C)cc1OC
inactive: dose: 100.0 mg/kg/injection, schedule: Q01DX001 (ip), vehicle: saline with Tween-80 98 % of control | [6] 93 % of control and 97 % of control | dose: 200.0 mg/kg/injection, schedule: Q01DX001 (ip), vehicle: saline with Tween-80 93 % of control | [7] 95 % of control and 90 % of control | dose: 400.0 mg/kg/injection, schedule: Q01DX001 (ip), vehicle: saline with Tween-80 96 % of control | [8] 97 % of control and 102 % of control

CC(OC(=O)c1ccccc1O)c1ccccc1 (configuration not stated)
inactive: [20] 96 % of control | [22] 96 % of control | [23] 100 % of control

O=C(Nc1ccc(F)cc1)OCCc1ccccn1
inactive: [11] 96 % of control | [26] 98 % of control and 101 % of control | [27] 94 % of control and 99 % of control | [5] 113 % of control | [12] 101 % of control | [13] 101 % of control and 106 % of control | [28] 94 % of control and 96 % of control | [10] 96 % of control | [14] 91 % of control | [15] 94 % of control and 91 % of control | [29] 97 % of control and 105 % of control | [16] 99 % of control

C=CC(=O)OCC(C)(C)C
inactive: [24] 100 % of control and 103 % of control | [25] 100 % of control and 107 % of control | dose: 800.0 mg/kg/injection, schedule: Q04DX002 (ip), vehicle: saline 97 % of control

Nc1ccc(N=Nc2ccccc2Cl)c(N)n1
inactive: dose: 50.0 mg/kg/injection, schedule: Q01DX001 (ip), vehicle: other 103 % of control | dose: 100.0 mg/kg/injection, schedule: Q01DX001 (ip), vehicle: other 100 % of control | dose: 200.0 mg/kg/injection, schedule: Q01DX001 (ip), vehicle: other 94 % of control | dose: 400.0 mg/kg/injection, schedule: Q01DX001 (ip), vehicle: other 100 % of control

CCOC(=O)C(=NNc1cccc(Br)c1)C(=O)OCC
inactive: [30] 98 % of control | [31] 94 % of control | [32] 96 % of control

Cn1c(=O)c2[nH]c(C3CC4C=CC3C4)nc2n(C)c1=O (configuration not stated)
inactive: [33] 93 % of control | [30] 104 % of control | [31] 98 % of control

CC(NC(=O)OCc1ccccc1)C(=O)NCCC(N)=O (configuration not stated)
inactive: [17] 91 % of control | [18] 88 % of control

Cc1ccc(/C=C\C(=O)OCCCCOC(=O)/C=C/c2ccc(C)cc2)cc1
inactive: [33] 97 % of control | [30] 95 % of control | [31] 91 % of control | [32] 95 % of control

COc1cccc(NC(=S)NC(Cc2ccccc2)c2ccccc2)c1 (configuration not stated)
inactive: [27] 94 % of control | [28] 101 % of control | [29] 97 % of control
